Laboratory results from PMC9088392 (RSC Advances, 2022).

Target: T1, PaER (Ogataea polymorpha, UniProt A0A1B7SQN2)
T1 sequence (A0A1B7SQN2 1-402): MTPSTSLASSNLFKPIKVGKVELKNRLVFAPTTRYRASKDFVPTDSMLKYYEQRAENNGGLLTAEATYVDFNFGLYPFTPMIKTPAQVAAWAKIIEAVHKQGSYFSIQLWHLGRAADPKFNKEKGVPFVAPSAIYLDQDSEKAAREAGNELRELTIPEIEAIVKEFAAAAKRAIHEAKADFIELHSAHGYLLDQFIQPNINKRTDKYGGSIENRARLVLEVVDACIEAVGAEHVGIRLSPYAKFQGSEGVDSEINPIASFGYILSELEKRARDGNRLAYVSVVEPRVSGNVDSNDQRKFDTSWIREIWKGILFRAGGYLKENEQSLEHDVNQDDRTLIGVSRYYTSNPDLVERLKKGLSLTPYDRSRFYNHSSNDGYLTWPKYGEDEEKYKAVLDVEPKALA
Assay: flavin released from purified enzyme by heat, RP-HPLC
Assay type: binding
Settings: non-covalent flavin co-purified with the enzyme

## Cc1cc2nc3c(=O)[nH]c(=O)nc-3n(C[C@H](O)[C@H](O)[C@H](O)COP(=O)(O)O)c2cc1C [FMN]
  flavin released from purified enzyme by heat, RP-HPLC: yellow color as expected for FMN-containing protein and was also confirmed by HPLC
